Key:
[1] = system: human primary trabecular meshwork cells; test: α-SMA expression in TGF-β2 treated TM cells; format: cell-based; settings: TGFβ2 5 ng/mL 48 hr; remodilin 3 μM, PGE2 1 μM; vs DMSO
Description: FIG. 9 Anti-fibrogenic effects of remodilin 50 in human primary trabecular meshwork cells.
(§1) TM cells were cultured in 6-well plates and serum-deprived for one day before drug treatment. Cells were treated with prostaglandin E2 (PGE2, 1 μM), remodilin [3 μM] or vehicle control (dimethyl sulfoxide, DMSO) together with human recombinant TGF-β2 [5 ng/ml] for 48 hours. PGE2 was chosen as a positive control due to its known anti-fibrogenic effects. […] The effect of remodilin treatment alone on cellular contractile force in TM cells was examined. The effects of remodilin treatment using “force response ratio” which is a normalized average contractile force compared to baseline, was examined. Average contractile force was measured using Fourier-Transform Traction Microscopy. After 1 hr treatment, compared to DMSO, remodilins reduced average contractile force of TM cells in a dose dependent manner. […] Therefore, remodilins may change structural compositions and mechanical properties of TM and therefore, may help increase outflow facility in glaucomatous eyes with elevated TGF-β2 level.

[2] = system: human lung-derived fibroblasts; test: TGFβ-induced myofibroblast transformation (ACTA2, FN1 protein expression); format: cell-based; settings: 1 ng/mL TGFβ1; 0, 1, 3, or 10 μM remodilin for 2 d; dose-dependent
Description: FIG. 1 Remodilins inhibit myofibroblast transformation (MFT). Serum deprived human lung-derived fibroblasts were treated with 1 ng/mL TGFβ1 (or not, left lane) and 0, 1, 3, or 10 μM remodilin for 2 d. Four remodilins each inhibited smooth muscle α-actin (ACTA2) or fibronectin-1 (FN1) protein expression (markers of MFT).

TM cells = test: Contractile force of TM cells (Fourier-Transform Traction Microscopy); format: cell-based, human; settings: treatment alone, 1 hr, vs DMSO; dose dependent
Description: as §1

[3] = system: human primary Schlemm's canal endothelial cells; test: Contractile force of SC cells (Fourier-Transform Traction Microscopy); format: cell-based; settings: vs DMSO; for elevation of cellular contractile force in TGFβ2 treated SC cells: TGFβ2 2.5 ng/mL 48 hr, dose-dependent; for cellular contractile force of SC cells, remodilin alone: treatment alone, 1 hr, dose dependent
Description: (§2) FIGS. 11A-11C Anti-fibrogenic effects of remodilins 50, 73, and 82 in human primary Schlemm's canal endothelial cells.
Remodilins' effect on elevation of SC cell contraction by TGF-β2 treatment was then examined. Cellular contractile force was measured using Fourier-Transform Traction Microscopy. Compared to no treatment, TGF-β2 treatment elevated average cellular contractile force by almost seven-fold. […] Then, the effect of remodilin treatment alone on cellular contractile force in SC cells was investigated. After 1 hr treatment, compared to DMSO, remodilins reduced cellular contractile force in a dose dependent manner (FIG. 11C). […] Taken together, the anti-fibrogenic effects and relaxation effects of remodilins could be beneficial to reduce outflow resistance potentially through promoting pore formation in SC inner wall.

[4] = system: human primary Schlemm's canal endothelial cells; test: Fibronectin expression in TGF-β2 treated SC cells; format: cell-based; settings: TGFβ2 2.5 ng/mL 48 hr; remodilin 3 or 10 μM; vs DMSO
Description: as §2
Remodilins' effect on SC cells, another key cell type in conventional outflow pathway, was examined. As described above, TGF-β2 also promotes pro-fibrogenic activation in SC cells and such activation accompanies elevation of cell contraction. Protein expression in TGF-β2 treated SC cells was examined first. SC cells from two different donors were cultured in 6-well plates and serum-deprived for 1 day before drug treatment. Cells were treated with Remodilin [3 or 10 μM] or DMSO together with human recombinant TGF-2 [2.5 ng/ml] for 48 hours.

[5] = system: Smad-dependent transcription; test: TGFβ-stimulated Smad-dependent transcription (SBE-Luc reporter); format: cell-based; settings: human lung fibroblasts; 10 μM
Description: (§3) FIG. 2 Signaling pathway targeted by remodilins. Schematic diagram (center) of signaling from TGFβ to (SRF); red proteins are some, but not all, potential targets. TGFβ stimulates Smad-dependent transcription in human lung fibroblasts that is unchanged by 10 μM remodilin 4 (left), but TGFβ-stimulated SRF-dependent transcription is inhibited by the remodilin (right). SBE—Smad binding element; Luc—luciferase; TK-RL—constitutively active thymidine kinase promoter-driven renilla luciferase (used to control for transfection efficiency).
(§4) In cultured human lung fibroblasts, remodilins act downstream of Smad signaling, which remains intact, though TGFβ-induced SRF activation is blocked (FIG. 2); SRF is necessary for expression of smooth muscle α-actin and other contractile proteins. Remodilins also suppress TGFβ-induced HIF1α expression in human lung fibroblasts and HIF1α-stimulated pathways in human airway myocytes.

[6] = system: SRF-dependent transcription; test: TGFβ-stimulated SRF-dependent transcription (luciferase reporter); format: cell-based; settings: human lung fibroblasts; 10 μM
Description: as §3, §4

[7] = Lipophilicity and dissolution in vehicles; format: physicochemical
Description: In the experiments corresponding to FIG. 7, remodilin 83 was dissolved in 20% Solutol in PBS.

HIF1α [8] = test: Hypoxia-induced HIF1α accumulation in HEK293T cells (Western blot); format: cell-based; settings: 6 hrs steady hypoxia; 3 or 10 μM
Text: FIG. 14A-14B Remodilins' effects on hypoxia-induced accumulation of HIF1α. […] FIG. 14B HIF1α was absent in cells ex-posed to 6 hrs normoxia (N).
OSA is a chronic, morbid disease affecting about 10% of the adult population, in which frequent episodes of upper airway collapse obstruct inspiratory airflow and cause IH. These episodes of IH disrupt sleep but perhaps more importantly accelerate multiple cardiometabolic abnormalities, including systemic hypertension, cardiovascular disease, stroke, and abnormal glucose metabolism. Therefore, remodilins were examined for their ability on inhibit hypoxia-induced accumulation of HIF1α, a transcription factor that mediates many of the adverse responses to IH.

HIF1α [9] = test: Hypoxia-induced HIF1α accumulation in HEK293 cells; format: cell-based; settings: 6 hrs steady hypoxia (1% oxygen); 3 μM or 10 µM
Text: FIG. 12A-12B Remodilins inhibit accumulation of hypoxia-inducible factor-1 alpha (HIF1α) protein. FIG. 12A Effect of remodilin 83 on TGFβ-induced phosphorylation of AKT and ERK1/2 and TGFβ-induced HIF1α accumulation in human fibroblasts. FIG. 12B Both remodilins 39 and 83 inhibited HIF1α accumulation in HEK293 cells exposed to 6 hrs of hypoxia (1% 02).
The influence of remodilin 83 on HIF-1α accumulation in TGFβ-treated fibroblasts was examined. […] Similarly, both remodilins 39 and 83 inhibited HIF1α accumulation in HEK293 cells exposed to 6 hrs of hypoxia (1% O2; FIG. 12B). […] N—normoxia; H—hypoxia.

MDA-MB-231 cells [10] = test: Alamar blue assay (growth inhibition, cytotoxicity); format: cell-based, human; settings: concentrations to at least 10 uM
MDA-MB-231 cells [11] = test: Spheroid invasion into collagen gels; format: cell-based, human; settings: 10 µM remodilin; 48 hrs; collagen 2 mg/mL; DMEM 0.5% FBS; vs 0.1% DMSO
Description: FIG. 3 MDA-MB-231 cells were grown into spheroids, then allowed to migrate into collagen gels in DMEM containing 0.5% FBS and remodilin (10 µM remodilin 39 [top row] or remodilin 83 [bottom row]) or diluent (0.1% DMSO) for 48 hrs (representative 48 hr images shown).
(§5) Remodilins 39 and 83 each slowed the invasion of triple negative MDA-MB-231 human breast cancer cells from spheroids into a surrounding collagen gel (FIG. 3), and also slowed the serum-directed invasion MDA-MB-231-derived BM1 cells through Matrigel-coated transwells (FIG. 4). Remodilins 39 and 83 also slowed the migration of MDA-MB-231 cells in a scratch wound healing assay (FIG. 5).

[12] = system: MDA-MB-231-derived BM1 cells; test: 10% FBS-directed invasion through Matrigel-coated transwell membrane; format: cell-based, human; settings: dose-dependent; n=3/condition
Text: FIG. 4 Remodilins 39 and 83 inhibited 10% FBS-directed invasion migration of MDA-MB-231-derived BM1 cells through a Matrigel-coated transwell mem-brane, in a dose-dependent fashion. Mean+SEM shown; n=3/condition. **P<0.01; ***P<0.001; ****P<0.0001.
as §5

MDA-MB-231 cells [13] = test: Scratch wound healing migration assay; format: cell-based, human; settings: dose-dependent; 1, 3, 10 uM; n=8 wells/condition
Description: Mean+SD shown; n=8 wells/condition. P<0.0001 for 1, 3, & 10 uM remodilin 39 vs DMSO (control) by 2-way ANOVA/Dunnett's.
as §5

[14] = In vivo PK and oral bioavailability, single dose; settings: mouse, plasma, wild-type mice, 10 mg/kg single dose
Description: (§6) The in vivo bioavailability, plasma half-life, Cmax, and area under the curve (AUC) were determined after administration of single 10 mg/kg doses of remodilins 39 and 83 to mice (Table 1). Selected tissue concentrations of remodilins 39 and 83 after single oral doses of 10 or 50 mg/kg (FIG. 6). The PK properties of these remodilins differ substantially.

[15] = Tissue and plasma concentrations after single oral doses; format: in vivo; settings: mice; single oral doses of 10 or 50 mg/kg (FIG. 6)
Description: FIG. 6 Tissue and plasma remodilin concentrations after single oral doses (filled circles 50 mg/kg; open circles-10 mg/kg). […] The greater oral bioavailability, longer half-life, and inter-tissue variation of remodilin 83 concentration are readily evident. Mean+SEM shown; n=3/condition.
as §6
PK was re-evaluated after 14 days of intraperitoneal (IP) or oral BID dosing. […] Plasma levels after single or 15 consecutive once-daily IP 10 mg/kg doses of remodilin 39 were examined (FIG. 8). The plasma concentration of 10 μM remodilin 39 corresponds to 5314 ng/mL.

| Structure (SMILES) | α-SMA expression induced by TGF-β2 in TM cells [1] | TGFβ-stimulated transformation of human lung-derived fibroblasts to myofibroblast phenotype (ACTA2 or FN1 protein expression) [2] | average contractile force of TM cells (force response ratio) (TM cells) | elevation of cellular contractile force in TGFβ2 treated SC cells [3] | cellular contractile force of SC cells, remodilin alone [3] | fibronectin expression in TGFβ2 treated SC cells [4] | further results |
| --- | --- | --- | --- | --- | --- | --- | --- |
| CCCCC[C@H](O)/C=C/[C@H]1[C@H](O)CC(=O)[C@@H]1C/C=C\CCCC(=O)O [PGE2, prostaglandin E2, reference compound] | inhibited α-SMA expression |  |  |  |  |  |  |
| O=C(Nc1ccc(S(=O)(=O)N2CCCC2)cc1)c1ccc(Br)c(I)c1 [Remodilin 50, 4-Bromo-3-iodo-N-(4-(pyrrolidin-1-ylsulfonyl)phenyl)benzamide] | inhibited alpha smooth muscle actin expression | blunt TGFβ-stimulated transformation | induced relaxation in TM cells | inhibited the elevation of cellular contractile force | induced relaxation in SC cells | inhibited fibronectin expression |  |
| CCC1CCCCN1S(=O)(=O)c1ccc(NC(=O)c2ccc(OC)c(I)c2)cc1 (stereo not drawn) [Remodilin 82, N-(4-((2-ethylpiperidin-1-yl)sulfonyl)phenyl)-3-iodo-4-methoxybenzamide] |  |  | induced relaxation in TM cells | inhibited the elevation of cellular contractile force | induced relaxation in SC cells | inhibited fibronectin expression |  |
| CCN(CC)S(=O)(=O)c1ccc(NC(=O)c2ccc(OC)c(I)c2)cc1 [Remodilin 4, N-(4-(N,N-diethylsulfamoyl)phenyl)-3-iodo-4-methoxybenzamide] |  | blunt TGFβ-stimulated transformation |  |  |  |  | TGFβ-stimulated Smad-dependent transcription [5]: unchanged; TGFβ-stimulated SRF-dependent transcription [6]: inhibited |
| CC1CCCCN1S(=O)(=O)c1ccc(NC(=O)c2ccc(Br)c(I)c2)cc1 (stereo not drawn) [Remodilin 73, 4-Bromo-3-iodo-N-(4-((2-methylpiperidin-1-yl)sulfonyl)phenyl)benzamide] |  |  |  | inhibited the elevation of cellular contractile force | induced relaxation in SC cells | inhibited fibronectin expression |  |
| COc1ccc(C(=O)Nc2ccc(S(=O)(=O)N3CCCCC3C)cc2)cc1I (stereo not drawn) [Remodilin 39, 3-Iodo-4-methoxy-N-(4-((2-methylpiperidin-1-yl)sulfonyl)phenyl)benzamide] |  | blunt TGFβ-stimulated transformation |  |  |  |  | lipophilicity / lipid solubility [7]: highly lipid soluble; HIF1α accumulation in HEK293T cells exposed to hypoxia (HIF1α [8]): inhibit the accumulation of HIF1α; HIF1α accumulation in HEK293 cells exposed to hypoxia (HIF1α [9]): blunted HIF1α accumulation substantially; growth inhibition or cytotoxicity by Alamar blue assay (MDA-MB-231 cells [10]): Neither remodilin is growth-inhibitory or cytotoxic; invasion of MDA-MB-231 cells from spheroids into collagen gels (MDA-MB-231 cells [11]): inhibited invasion; 10% FBS-directed invasion migration of BM1 cells through Matrigel-coated transwell membrane [12]: inhibited; migration of confluent MDA-MB-231 cells into circular scratch wound (MDA-MB-231 cells [13]): inhibited migration; bioavailability ([14]; po): 4%; AUC [14]: 0.224 µg·h/mL; Cmax [14]: 0.24 µM; half-life [14]: 1.3 h; tissue distribution [15]: distributed much more uniformly across tissues |

— patent US20240415851A1, “REMODILINS TO PREVENT OR TREAT CANCER METASTASIS, GLAUCOMA, AND HYPOXIA” (The University of Chicago, priority 2019, published 2024)
